These results are taken from US20120053165A1, “Novel Phenyl Imidazoles and Phenyl Triazoles As Gamma-Secretase Modulators” (Pfizer Inc., priority 2009, published 2012).

Structures can show the parent of a compound that is named as a salt.
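Further: Aβ(1-42) released into conditioned medium captured by ELISA after roughly 24 h compound exposure, vehicle and inhibitor controls defining maximal and minimal inhibition.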

The subject of one assay is production of amyloid beta protein Aβ(1-42) in human WT-APP overexpressing CHO cells. Particulars: Homo sapiens, CHO, read-out: Aβ 42 IC50.
Experimental: Cell-Based γ-Secretase Assay with ELISA Readout
The ability of compounds to modulate production of amyloid beta protein Aβ(1-42) was determined using human WT-APP overexpressing CHO cells. Cells were plated at 22,000 cells/100 μL well in 96 well tissue culture treated, clear plates (Falcon) in DMEM/F12 based medium and incubated for 24 hours at 37° C. […] Compounds were added in fresh medium to achieve 1% final DMSO. Appropriate vehicle and inhibitor controls were added to obtain maximum and minimum inhibition values for the assay before the plates were incubated for about 24 hours at 37° C.
Coating of ELISA assay plates was initiated by addition of 50 μL/well of an in house Aβ(1-42) specific antibody at (4 μg/mL) in 0.1 M NaHCO3 (pH 9.0) into black 384-well Maxisorp® plates (Nunc) and incubated overnight at 4° C. […] Ambient temperature incubation was allowed to proceed for a minimum of two hours before washing 2×100 μL with Wash Buffer (Dulbecco's PBS, 0.05% Tween 20). Assay Buffer (Dulbecco's PBS, 1.0% BSA (Sigma A7030), 0.05% Tween 20) 20 μL/well is then added.
After incubation overnight at 37° C., 5% CO2, 40 μL (in duplicate) of experimental conditioned media are transferred into wells of the blocked ELISA plates containing the capture antibody, followed by overnight incubation at 4° C.
After overnight incubation of the ELISA assay plates at 4° C., unbound Aβ peptides were removed thorough (4×100 μL) washes with Wash Buffer.
In the case of `COc1cc(C(=O)NCCc2ccc(C)c(C)c2)ccc1-n1cnc(C)c1` [Example 64, N-[2-(3,4-dimethyl-phenyl)ethyl]-3-methoxy-4-(4-methyl-1H-imidazol-1-yl)benzamide], the IC50 stood at 395 nM.

The assay is the same for the next values; noted with them: Homo sapiens, CHO, read-out: Aβ 42 IC50, Geometric mean of 2-8 determinations; human WT-APP overexpressing CHO cells.
Regarding `COc1cc(C(=O)NCC2(c3ccccc3)CC2)ccc1-n1cnc(C)c1` [Example 101, 3-methoxy-4-(4-methyl-1H-imidazol-1-yl)-N-[(1-phenylcyclopropyl)methyl]benzamide], the IC50 came to 686 nM.
With `COc1cc(C(=O)N2CC(COc3cccc(C(F)(F)F)c3)C2)ccc1-n1cnc(C)c1` [Example 133, 1-{2-methoxy-4-[(3-{[3-(trifluoromethyl)phenoxy]methyl}azetidin-1-yl)carbonyl]phenyl}-4-methyl-1H-imidazole], the IC50 stood at 496 nM.
On to `CCOc1cc(C)c(CN(C(=O)c2ccc(-n3cnc(C)c3)c(OC)c2)C2CC2)cc1C(C)C` [Example 124, N-cyclopropyl-N-(4-ethoxy-5-isopropyl-2-methylbenzyl)-3-methoxy-4-(4-methyl-1H-imidazol-1-yl)benzamide], for which the IC50 was determined as 114 nM.
`COc1cc(C(=O)NCC(c2ccc(C(F)(F)F)cc2)N2CCOCC2)ccc1-n1cnc(C)c1` (stereo not shown) [Example 111, 3-methoxy-4-(4-methyl-1H-imidazol-1-yl)-N-{2-morpholin-4-yl-2-[4-(trifluoromethyl)phenyl]ethyl}benzamide]: the IC50 is 756 nM.
Regarding `COc1cc(C(=O)N2CC(COc3ccccc3C(F)(F)F)C2)ccc1-n1cnc(C)c1` [Example 131, 1-{2-methoxy-4-[(3-{[2-(trifluoro-methyl)phenoxy]methyl}azetidin-1-yl)carbonyl]phenyl}-4-methyl-1H-imidazole], the IC50 amounted to 311 nM.
`COc1cc(C(=O)N[C@H]2CCc3ccc(Cl)cc32)ccc1-n1cnc(C)c1` [Example 129, N-[(1S)-6-chloro-2,3-dihydro-1H-inden-1-yl]-3-methoxy-4-(4-methyl-1H-imidazol-1-yl)benzamide]: the IC50 was 605 nM.
Regarding `COc1cc(C(=O)N[C@@H]2COC[C@@H]2Oc2ccc(Br)cc2)ccc1-n1cnc(C)c1` [Example 48, N-[(3R,4R)-4-(4-bromophenoxy)-tetrahydro-furan-3-yl]-3-methoxy-4-(4-methylimidazol-1-yl)benzamide], the IC50 is 1740 nM.
Same read-out and setting: next, `COc1cc(C(=O)N2CCC(Oc3ccccc3OC(F)(F)F)CC2)ccc1-n1cnc(C)c1` [Example 93, 1-[3-methoxy-4-(4-methyl-1H-imidazol-1-yl)benzoyl]-4-[2-(trifluoromethoxy)phenoxy]piperidine]: 602 nM.
As for `COc1cc(C(=O)N2CCCC(Oc3ccccc3C(C)C)C2)ccc1-n1cnc(C)c1` (stereo not shown) [Example 85, 3-(2-isopropylphenoxy)-1-[3-methoxy-4-(4-methyl-1H-imidazol-1-yl)benzoyl]piperidine], the IC50 was determined as 533 nM.
`COc1cc(C(=O)N2CCC(c3cccc(Cl)c3)C2)ccc1-n1cnc(C)c1` (stereo not shown) [Example 98, 1-(4-{[3-(3-chlorophenyl)pyrrolidin-1-yl]carbonyl}-2-methoxyphenyl)-4-methyl-1H-imidazole]: the IC50 worked out at 642 nM.
Consider `COc1cc(C(=O)NC2CCCc3c(O)cccc32)ccc1-n1cnc(C)c1` (stereo not shown) [Example 106, N-(5-hydroxy-1,2,3,4-tetrahydronaphthalen-1-yl)-3-methoxy-4-(4-methyl-1H-imidazol-1-yl)benzamide], for which the IC50 amounted to 731 nM.
Consider `COc1cc(C(=O)N2CCC(Oc3cccc(C(F)(F)F)c3)CC2)ccc1-n1cnc(C)c1` [Example 119, 1-[3-methoxy-4-(4-methyl-1H-imidazol-1-yl)benzoyl]-4-[3-(trifluoromethyl)phenoxy]piperidine], for which the IC50 worked out at 847 nM.
For the compound `COc1cc(C(=O)Nc2[nH]nc(C)c2-c2cccc(C(F)(F)F)c2)ccc1-n1cnc(C)c1` [Example 10, 3-methoxy-4-(4-methyl-1H-imidazol-1-yl)-N-{3-methyl-4-[3-(trifluoro-methyl)phenyl]-1H-pyrazol-5-yl}benzamide], the IC50 stood at 245 nM.
In the case of `COc1cc(C(=O)N2CCC(COc3ccccc3C(F)(F)F)C2)ccc1-n1cnc(C)c1` (stereo not shown) [Example 132, 1-{2-methoxy-4-[(3-{[2-(tri-fluoromethyl)phenoxy]methyl}pyrrolidin-1-yl)carbonyl]phenyl}-4-methyl-1H-imidazole], the IC50 was determined as 472 nM.
Consider `COc1cc(C(=O)NCC(C)Oc2ccccc2Cl)ccc1-n1cnc(C)c1` (stereo not shown) [Example 74, N-[2-(2-chlorophenoxy)propyl]-3-methoxy-4-(4-methyl-1H-imidazol-1-yl)benzamide], for which the IC50 stood at 466 nM.

The same assay, now with this note: Homo sapiens, CHO, read-out: Aβ 42 IC50, Geometric mean of at least 2 determinations; human WT-APP overexpressing CHO cells.
Take `CCc1cc(F)ccc1OCC1CN(C(=O)c2ccc(-n3cnc(C)c3)c(OC)c2)C1` [Example 138, 1-[4-({3-[(2-ethyl-4-fluorophenoxy)methyl]azetidin-1-yl}carbonyl)-2-methoxyphenyl]-4-methyl-1H-imidazole trifluoroacetate salt]: the concentration for half-maximal inhibition (IC50) was 537 nM.

The same assay, now with this note: Homo sapiens, CHO, read-out: Aβ 42 IC50, Single IC50 determination; human WT-APP overexpressing CHO cells.
`COc1ccc2c(c1)CCC2NC(=O)c1ccc(-n2cnc(C)c2)c(OC)c1` (stereo not shown) [Example 120, 3-methoxy-N-(5-methoxy-2,3-dihydro-1H-inden-1-yl)-4-(4-methyl-1H-imidazol-1-yl)benzamide]: the IC50 turned out to be 878 nM.

The same assay, now with this note: Homo sapiens, CHO, read-out: GM Aβ 42B IC50, Geometric Mean of 2-8 Determinations; human WT-APP overexpressing CHO cells.
As to `COc1cc(C(=O)NCCc2cccc(C#N)c2)ccc1-n1cnc(C)c1` [Example 1, N-[2-(3-cyanophenyl)ethyl]-3-methoxy-4-(4-methyl-1H-imidazol-1-yl)benzamide], the concentration for half-maximal inhibition (IC50) stood at 2920 nM.

Staying with this assay, now noted: read-out: Aβ 42 IC50; Geometric mean of 2-8 determinations; human WT-APP overexpressing CHO cells.
`COc1cc(C(=O)NCCOc2ccccc2Cl)ccc1-n1cnc(C)c1` [Example 90, N-[2-(2-chlorophenoxy)ethyl]-3-methoxy-4-(4-methyl-1H-imidazol-1-yl) benzamide]: the IC50 was found to be 573 nM.
On to “N-{[3-(3- chlorophenyl)- 4,5-dihydro- isoxazol-5-yl] methyl}-3- methoxy-4- (4-methyl-1H- imidazol-1-yl) benzamide [Example 12]”, for which the IC50 was 1310 nM.
Consider `COc1cc(C(=O)NCCc2nc3ccc(Cl)cc3o2)ccc1-n1cnc(C)c1` [Example 38, N-[2-(6-chloro-1,3-benzoxazol-2-yl)ethyl]-3-methoxy-4-(4-methyl-1H-imidazol-1-yl) benzamide], for which the IC50 is 354 nM.
The same measure, in the same setting: next, `COc1cc(C(=O)NCc2nc(-c3ccc(C(F)(F)F)c(F)c3)no2)ccc1-n1cnc(C)c1` [Example 94, N-({3-[3-fluoro-4-(trifluoromethyl)phenyl]-1,2,4-oxadiazol-5-yl}methyl)-3-methoxy-4-(4-methyl-1H-imidazol-1-yl) benzamide]: 610 nM; `COc1cc(C(=O)NCc2ccc(C(=O)c3ccccc3)cc2)ccc1-n1cnc(C)c1` [Example 43, N-(4-benzoyl-benzyl)-3-methoxy-4-(4-methyl-1H-imidazol-1-yl) benzamide]: 582 nM; `COc1cc(C(=O)NCc2ccc(C(F)(F)F)c(F)c2)ccc1-n1cnc(C)c1` [Example 83, N-[3-fluoro-4-(trifluoromethyl)benzyl]-3-methoxy-4-(4-methyl-1H-imidazol-1-yl) benzamide]: 514 nM.
As for `COc1cc(C(=O)NC(C)Cc2ccc(C(F)(F)F)cc2)ccc1-n1cnc(C)c1` (stereo not shown) [Example 88, 3-methoxy-4-(4-methyl-1H-imidazol-1-yl)-N-{1-methyl-2-[4-(trifluoromethyl)phenyl]ethyl} benzamide], the IC50 amounted to 561 nM.
Same read-out and setting: as for `COc1cc(C(=O)N[C@@H]2CCC[C@@H]2Cc2ccccc2)ccc1-n1cnc(C)c1` [Example 72, N-[(1R,2R)-2-benzylcyclopentyl]-3-methoxy-4-(4-methyl-1H-imidazol-1-yl) benzamide], the figure is 442 nM.
On the same count and under the same terms, as for `COc1cc(C(=O)NC(c2ccccc2Cl)c2nc3ccccc3n2C)ccc1-n1cnc(C)c1` (stereo not shown) [Example 96, N-[(2-chlorophenyl)(1-methyl-1H-benzimidazol-2-yl)methyl]-3-methoxy-4-(4-methyl-1H-imidazol-1-yl) benzamide], the figure is 630 nM; as for `COc1cc(C(=O)NC(C)COc2c(C)cccc2C)ccc1-n1cnc(C)c1` (stereo not shown) [Example 56, N-[2-(2,6-dimethyl-phenoxy)-1-methylethyl]-3-methoxy-4-(4-methyl-1H-imidazol-1-yl) benzamide], 337 nM.
Consider `COc1cc(C(=O)N(C)Cc2cccc3ccccc23)ccc1-n1cnc(C)c1` [Example 118, 3-methoxy-N-methyl-4-(4-methyl-1H-imidazol-1-yl)-N-(1-naphthylmethyl) benzamide], for which the IC50 is 837 nM.
Turning to `COc1cc(C(=O)N(C)Cc2ccc3ccccc3c2)ccc1-n1cnc(C)c1` [Example 22, 3-methoxy-N-methyl-4-(4-methyl-1H-imidazol-1-yl)-N-(2-naphthyl-methyl) benzamide], the IC50 was 977 nM.
In the case of `COc1cc(C(=O)NCCc2c[nH]c3ccc(Cl)cc23)ccc1-n1cnc(C)c1` [Example 25, N-[2-(5-chloro-1H-indol-3-yl)ethyl]-3-methoxy-4-(4-methyl-1H-imidazol-1-yl) benzamide], the IC50 stood at 195 nM.

Still in this assay, the particulars now being: read-out: Aβ 42 IC50; Geometric mean of 26 determinations; human WT-APP overexpressing CHO cells.
Turning to `COc1cc(C(=O)NCC2(c3ccc(F)cc3)CCC2)ccc1-n1cnc(C)c1` [Example 13, N-{[1-(4-fluorophenyl)cyclobutyl]methyl}-3-methoxy-4-(4-methyl-1H-imidazol-1-yl) benzamide], the IC50 worked out at 261 nM.

The assay is the same for the next values; noted with them: read-out: Aβ 42 IC50; Single IC50 determination; human WT-APP overexpressing CHO cells.
For the compound `COc1cc(C(=O)NCC2(c3ccc(Br)cc3)CC2)ccc1-n1cnc(C)c1` [Example 39, N-{[1-(4-bromophenyl)cyclopropyl]methyl}-3-methoxy-4-(4-methyl-1H-imidazol-1-yl) benzamide], the IC50 was found to be 248 nM.

By IC50 is commonly meant the midpoint of a concentration-inhibition curve.
